Laboratory results taken from US8124793B2, “Derivatives of ethylene methanedisulfonate as cancer chemotherapeutic agents” (priority 2007, dated 2012).

Key:
Type in all cases: cell-based
CCRF-CEM = test: NCI screen, growth of human tumor cells: Leukemia CCRF-CEM; conditions: CCRF-CEM (Leukemia), 10^−4 molar
How it was run: (§1)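 The NCI screen tests each compound on human cancer cell lines and reports percent growth. Concentrations are given in molar units; the number of data points per compound is sixty at minimum.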

HL-60 (TB) = test: NCI screen, growth of human tumor cells: Leukemia HL-60 (TB); conditions: HL-60 (TB) (Leukemia), 10^−4 molar
Procedure: (§2) In the NCI screening process, each compound was tested and described by a minimum of 60 data points. The test data include, but are not limited to the type of cancer, the molar concentration used in the screen, and the percent growth of the cancer. In some cases, NMR and elemental analysis were used for structural assignment.

MOLT-4 = test: NCI screen, growth of human tumor cells: Leukemia MOLT-4; conditions: MOLT-4 (Leukemia), 10^−4 molar
How it was run: as §1

RPMI-8226 = test: NCI screen, growth of human tumor cells: Leukemia RPMI-8226; conditions: RPMI-8226 (Leukemia), 10^−4 molar
How it was run: as §1

SR = test: NCI screen, growth of human tumor cells: Leukemia SR; conditions: SR (Leukemia), 10^−4 molar
How it was run: as §1

HOP-62 = test: NCI screen, growth of human tumor cells: Non-Small Cell Lung HOP-62
How it was run: as §1

NCI-H522 = test: NCI screen, growth of human tumor cells: Non-Small Cell Lung NCI-H522; conditions: NCI-H522 (Non-Small Cell Lung), 10^−4 molar
How it was run: as §1

NCI-H23 = test: NCI screen, growth of human tumor cells: Non-Small Cell Lung NCI-H23; conditions: NCI-H23 (Non-Small Cell Lung), 10^−4 molar
How it was run: as §1

HCT-116 = test: NCI screen, growth of human tumor cells: Colon Cancer HCT-116; conditions: HCT-116 (Colon Cancer), 10^−4 molar
How it was run: as §1

HCT-15 = test: NCI screen, growth of human tumor cells: Colon Cancer HCT-15; conditions: HCT-15 (Colon Cancer), 10^−4 molar
How it was run: as §1

KM12 = test: NCI screen, growth of human tumor cells: Colon Cancer KM12; conditions: KM12 (Colon Cancer), 10^−4 molar
How it was run: as §1

SF-268 = test: NCI screen, growth of human tumor cells: CNS Cancer SF-268
How it was run: as §1

SF-295 = test: NCI screen, growth of human tumor cells: CNS Cancer SF-295
How it was run: as §1

SF-539 = test: NCI screen, growth of human tumor cells: CNS Cancer SF-539
How it was run: as §1

SNB-75 = test: NCI screen, growth of human tumor cells: CNS Cancer SNB-75; conditions: SNB-75 (CNS Cancer), 10^−4 molar
How it was run: as §1

U-251 = test: NCI screen, growth of human tumor cells: CNS Cancer U-251; conditions: U-251 (CNS Cancer), 10^−4 molar
How it was run: as §1

LOXIMVI = test: NCI screen, growth of human tumor cells: Melanoma LOXIMVI; conditions: LOXIMVI (Melanoma), 10^−4 molar
How it was run: as §1

SK-MEL-2 = test: NCI screen, growth of human tumor cells: Melanoma SK-MEL-2; conditions: SK-MEL-2 (Melanoma), 10^−4 molar
How it was run: as §1

UACC-62 = test: NCI screen, growth of human tumor cells: Melanoma UACC-62
How it was run: as §1

SK-OV-3 = test: NCI screen, growth of human tumor cells: Ovarian Cancer SK-OV-3; conditions: SK-OV-3 (Ovarian Cancer), 10^−4 molar
How it was run: as §1

OVCAR-3 = test: NCI screen, growth of human tumor cells: Ovarian Cancer OVCAR-3; conditions: OVCAR-3 (Ovarian Cancer), 10^−4 molar
How it was run: as §1

OVCAR-4 = test: NCI screen, growth of human tumor cells: Ovarian Cancer OVCAR-4; conditions: OVCAR-4 (Ovarian Cancer), 10^−4 molar
How it was run: as §1

786-0 = test: NCI screen, growth of human tumor cells: Renal Cancer 786-0; conditions: 786-0 (Renal Cancer), 10^−4 molar
How it was run: as §1

ACHN = test: NCI screen, growth of human tumor cells: Renal Cancer ACHN; conditions: ACHN (Renal Cancer), 10^−4 molar
How it was run: as §1

RXF-393 = test: NCI screen, growth of human tumor cells: Renal Cancer RXF-393; conditions: RXF-393 (Renal Cancer), 10^−4 molar
How it was run: as §1

SN12C = test: NCI screen, growth of human tumor cells: Renal Cancer SN12C; conditions: SN12C (Renal Cancer), 10^−4 molar
How it was run: as §1

CAKI-1 = test: NCI screen, growth of human tumor cells: Renal Cancer CAKI-1; conditions: CAKI-1 (Renal Cancer), 10^−4 molar
How it was run: as §1

MCF 7 = test: NCI screen, growth of human tumor cells: Breast Cancer MCF 7; conditions: MCF 7 (Breast Cancer), 10^−4 molar
How it was run: as §1

MCF7/ADR-RES = test: NCI screen, growth of human tumor cells: Breast Cancer MCF7/ADR-RES; conditions: MCF7/ADR-RES
How it was run: as §1

BT-549 = test: NCI screen, growth of human tumor cells: Breast Cancer BT-549
How it was run: as §1

HS 578T = test: NCI screen, growth of human tumor cells: Breast Cancer HS 578T; conditions: HS 578T (Breast Cancer), 10^−4 molar
How it was run: as §1

T-47D = test: NCI screen, growth of human tumor cells: Breast Cancer T-47D; conditions: T-47D (Breast Cancer), 10^−4 molar
Procedure: as §2

human cancer cells = test: NCI screen summary over the cancers tested (negative growth of human cancer cells); conditions: 10^−4 M conc.; cancers with negative growth / cancers tested
Procedure: as §2
The derivatives in the tables are grouped using the same category as in the tables 1-6.

`N#CCCC1(CCC#N)S(=O)(=O)OCCOS1(=O)=O` [NSC 665941] was tested, and the “percent of growth of human tumor cells” value (CCRF-CEM) was 5%, the “percent of growth of human tumor cells” value (HL-60 (TB)) was −17% and the “percent of growth of human tumor cells” value (MOLT-4) was 6%. For the same compound, the “percent of growth of human tumor cells” value (RPMI-8226) was 24%, the “percent of growth of human tumor cells” value (SR) was 10% and the “% Growth” value (HOP-62; HOP-62, 10^−4 molar) was 16%. The “% Growth” value (HOP-62; HOP-62, 10^−5 molar) was 46%, the “% Growth” value (HOP-62; HOP-62, 10^−6 molar) was 48% and the “% Growth” value (HOP-62; HOP-62, 10^−7 molar) was 25%. For the same compound, the “% Growth” value (HOP-62; HOP-62, 10^−8 molar) was 25%, the “percent of growth of human tumor cells” value (NCI-H522) was 18% and the “percent of growth of human tumor cells” value (NCI-H23) was 25%. The “percent of growth of human tumor cells” value (HCT-116) was 26%, the “percent of growth of human tumor cells” value (HCT-15) was 27% and the “percent of growth of human tumor cells” value (KM12) was 27%. The “% Growth” value (SF-268; SF-268, 10^−4 molar) was 24%, the “% Growth” value (SF-268; SF-268, 10^−5 molar) was 48% and the “% Growth” value (SF-295; SF-295, 10^−4 molar) was 7%. The “% Growth” value (SF-295; SF-295, 10^−5 molar) was 47%, the “% Growth” value (SF-539; SF-539, 10^−4 molar) was −48% and the “% Growth” value (SF-539; SF-539, 10^−5 molar) was 47%. The “percent of growth of human tumor cells” value (SNB-75) was 28%, the “percent of growth of human tumor cells” value (U-251) was 20% and the “percent of growth of human tumor cells” value (LOXIMVI) was 5%. The “percent of growth of human tumor cells” value (SK-MEL-2) was 26%, the “% Growth” value (UACC-62; UACC-62, 10^−4 molar) was 9% and the “% Growth” value (UACC-62; UACC-62, 10^−5 molar) was 49%. The “percent of growth of human tumor cells” value (SK-OV-3) was 28%, the “percent of growth of human tumor cells” value (OVCAR-3) was 12% and the “percent of growth of human tumor cells” value (OVCAR-4) was 4%. The “percent of growth of human tumor cells” value (786-0) was 6%, the “percent of growth of human tumor cells” value (ACHN) was 13% and the “percent of growth of human tumor cells” value (RXF-393) was 23%. The “percent of growth of human tumor cells” value (SN12C) was 15%, the “percent of growth of human tumor cells” value (CAKI-1) was 28% and the “percent of growth of human tumor cells” value (MCF 7) was 18%. For the same compound, the “% Growth” value (MCF7/ADR-RES; 10^−4 molar) was 1%, the “% Growth” value (MCF7/ADR-RES; 10^−5 molar) was 63% and the “% Growth” value (MCF7/ADR-RES; 10^−6 molar) was 69%. The “% Growth” value (MCF7/ADR-RES; 10^−7 molar) was 68%, the “% Growth” value (MCF7/ADR-RES; 10^−8 molar) was 56% and the “percent of growth of human tumor cells” value (BT-549; BT-549 (Breast Cancer), 10^−4 molar) was 18%. For the same compound, the “% Growth” value (BT-549; BT-549, 10^−4 molar) was 18%, the “% Growth” value (BT-549; BT-549, 10^−5 molar) was 33% and the “percent of growth of human tumor cells” value (HS 578T) was −8%. The “percent of growth of human tumor cells” value (T-47D) was 25% and the “Percentage of cancers showing negative growth cancers tested” value (human cancer cells) was 10^−4 M conc. = 3/32 = 9%.
